Test results published in patent publication US10881679B2, “Application of a phillyrin/phillygeninin composition in preparing a medicine or health care product for alleviating or/and treating viral diseases, and medicine or health care product for treating viral diseases” (priority 2014, dated 2021).
Where two headings read alike, the source gives them in different places. Marks after values point to notes of the source that are not given here.

Columns and labels:
[1] = tested on: sweat secretion of rat paws; assay: Sweat secretion of rat paws (coloring method); type: in vivo, Wistar rats; details: dose not given
From the text: The test is based on a mechanism that distribution of sweat glands is present in footpads of rat paws, the amount of sweat secretion and variation thereof can be observed by using a mechanism that a purple color can be produced by contacting iodine and starch when encountered with sweat.
500 Wistar rats with equal male and female number were used, weighing of 120˜150 g. These rats were randomly divided into 50 groups by weight and gender, i.e., namely 5 groups for the control groups (0.5% methyl cellulose), 5 groups for phillyrin groups, 5 groups for phillygeninin groups, 5 groups for the low, medium and high dose groups (2.5, 5, 10 mg/kg, respectively) of phillyrin/phillygeninin compositions A and B respactively, and 5 groups for the positive drug pilocarpine groups (35 mg/kg). Each group has 10 rats, 10 groups of rates are used for each test, which has 5 time periods (1, 5, 10, 15 and 20 min). The rats were placed into a self-made rat fixation bag, and both hind limbs of the rats were exposed. Dirt on the right paws was gently cleaned away using cotton swabs containing anhydrous alcohol. Pilocarpine solution was administered by subcutaneous injection, the remaining groups were subjected to intragastric administration. At 1 h (30 min for the pilocarpine group) after administration, pre-existing sweat and sweat generated due to struggle on the right paw of each rat in each group was gently wiped away with dry cotton swabs, then the paws were coated with solution A (dissolving 2 g iodine in 100 ml anhydrous alcohol) of Hetian-gaoyuanshi's reagent. After complete dryness, the paws were thinly coated with solution B (uniform mixture of 50 g soluble starch and 100 ml castor oil) of Hetian-gaoyuanshi's reagent. The color and number of dark purple coloring spots (i.e. sweat spots) were carefully observed at 1, 5, 10, 15 and 20 min after the coating of the solution B respectively with magnifying glass. After the test was completed, statistical treatment was performed according to the rank sum test with two-sample comparison, thereby comparing the differences among the various groups.

[2] = tested on: rat fever induced by beer yeast; assay: Rat fever induced by beer yeast (Saccharomyces cerevisiae); type: in vivo, Wistar rats; details: 10 mg/kg i.g.
Experimental: Male Wistar rats with a weight of 180˜200 g were used. Normal anal temperature of each rat was measured twice (at a certain interval) with a WSC-411P portable digital thermometer, and a mean of the two measurement values was taken as a normal body temperature of the rat. Then, 300 rats with body temperature at 36.5˜38° C. were selected and randomly divided into 30 groups by weight: model groups (0.5% methyl cellulose), phillyrin/phillygeninin compositions A and B that are divided into low, medium and high dose groups (2.5, 5, 10 mg/kg) respectively, phillyrin groups (13 mg/kg), phillygeninin groups (13 mg/kg), and positive drug paracetamol groups (100 mg/kg). Each group has 10 rates, and the test is repeated 3 times for each group. 10 mL/kg of 10% fresh Saccharomyces cerevisiae suspension was subcutaneously injected to the back of the rats of each group to induce fever. After administration of 10% fresh Saccharomyces cerevisiae suspension for 6.0 h, the phillyrin/phillygeninin composition and the paracetamol positive drug were administered by intragastric administration, and the same volume of 0.5% methyl cellulose is administrated to the model group by intragastric administration. Rectal temperatures were respectively measured at 1, 2, 3 and 4 h after the administration. Changes in the body temperature were observed and difference between the groups was compared by inter-group t test processing through antipyretic percentage. The above test was repeated totally 3 times.

parainfluenza virus = type: in vivo, Kunming mice; details: 13.0 mg/kg/d i.g. 5 days
influenza virus = assay: Impact on virus-induced cytopathic effect in Vero cells (MTT): influenza virus; type: cell-based
[3] = tested on: respiratory syncytial virus (RSV); assay: Impact on virus-induced cytopathic effect in Vero cells (MTT): RSV; type: cell-based; details: RSV 100TCID50, Vero, 72 h; drug g/L as Table 1-2
[4] = tested on: Coxsackievirus A16 (CoxA16); assay: Impact on virus-induced cytopathic effect in Vero cells (MTT): CoxA16; type: cell-based; details: CoxA16 100TCID50, Vero, 72 h; drug g/L as Table 1-2
[5] = 10 min after coating solution B
[6] = 15 min after coating solution B
[7] = 20 min after coating solution B

Structure (SMILES)	Animal number of sweat spots of level + ([1]; 1 min after coating solution B) [rats]	Animal number of sweat spots of level ++ ([1]; 1 min after coating solution B) [rats]	Animal number of sweat spots of level +++ ([1]; 1 min after coating solution B) [rats]	Animal number of sweat spots of level ++++ ([1]; 1 min after coating solution B) [rats]	Animal number of sweat spots of level − ([1]; 1 min after coating solution B) [rats]	Animal number of sweat spots of level + ([1]; 5 min after coating solution B) [rats]	Animal number of sweat spots of level ++ ([1]; 5 min after coating solution B) [rats]	Animal number of sweat spots of level +++ ([1]; 5 min after coating solution B) [rats]	Animal number of sweat spots of level ++++ ([1]; 5 min after coating solution B) [rats]	Animal number of sweat spots of level − ([1]; 5 min after coating solution B) [rats]	Animal number of sweat spots of level + [1, 5] [rats]	Animal number of sweat spots of level ++ [1, 5] [rats]	Animal number of sweat spots of level +++ [1, 5] [rats]	Animal number of sweat spots of level ++++ [1, 5] [rats]	Animal number of sweat spots of level − [1, 5] [rats]	Animal number of sweat spots of level + [1, 6] [rats]	Animal number of sweat spots of level ++ [1, 6] [rats]	Animal number of sweat spots of level +++ [1, 6] [rats]	Animal number of sweat spots of level ++++ [1, 6] [rats]	Animal number of sweat spots of level − [1, 6] [rats]	other results
COc1cc([C@H]2OC[C@H]3[C@@H]2CO[C@H]3c2ccc(OC)c(OC)c2)ccc1O [Phillygeninin, phillygeninin]	1	3	3	3	0	1	3	2	4	0	1	3	1	5	0	1	1	3	5	0	Animal number of sweat spots of level + [1, 7]: 0 rats; Animal number of sweat spots of level ++ [1, 7]: 1 rats; Animal number of sweat spots of level +++ [1, 7]: 4 rats; Animal number of sweat spots of level ++++ [1, 7]: 5 rats; Animal number of sweat spots of level − [1, 7]: 0 rats; Body temperature ([2]; 1 h after administration): 39.31 ± 0.48 °C; antipyretic percentage (%) ([2]; 1 h after administration): −0.33 ± 0.41%; Body temperature ([2]; 2 h after administration): 39.04 ± 0.45 °C; antipyretic percentage (%) ([2]; 2 h after administration): −0.69 ± 0.93 %; Body temperature ([2]; 3 h after administration): 38.91 ± 0.40 °C; antipyretic percentage (%) ([2]; 3 h after administration): −1.03 ± 1.18 %; Body temperature ([2]; 4 h after administration): 38.70 ± 0.31 °C; antipyretic percentage (%) ([2]; 4 h after administration): −1.55 ± 1.23 %; Lung index (parainfluenza virus): 1.357 ± 0.050; Lung index inhibition rate (parainfluenza virus): 14.69; antiviral effective rate (ER %) (influenza virus): 75.35** %; antiviral effective rate (ER %) [3]: 80.88** %; antiviral effective rate (ER %) [4]: 50.04%
COc1ccc([C@H]2OCC3C2CO[C@H]3c2ccc(O[C@@H]3OC(CO)[C@@H](O)[C@H](O)C3O)c(OC)c2)cc1OC (stereo partly shown) [phillyrin]	2	2	2	4	0	1	2	2	5	0	1	1	3	5	0	1	2	4	5	0	Animal number of sweat spots of level + [1, 7]: 0 rats; Animal number of sweat spots of level ++ [1, 7]: 4 rats; Animal number of sweat spots of level +++ [1, 7]: 0 rats; Animal number of sweat spots of level ++++ [1, 7]: 6 rats; Animal number of sweat spots of level − [1, 7]: 0 rats; Body temperature ([2]; 1 h after administration): 39.13 ± 0.52 °C; antipyretic percentage (%) ([2]; 1 h after administration): −0.60 ± 0.39%; Body temperature ([2]; 2 h after administration): 38.77 ± 0.42 °C; antipyretic percentage (%) ([2]; 2 h after administration): −0.92 ± 0.93 %; Body temperature ([2]; 3 h after administration): 38.63 ± 0.40 °C; antipyretic percentage (%) ([2]; 3 h after administration): −1.29 ± 1.18 %; Body temperature ([2]; 4 h after administration): 38.46 ± 0.31 °C; antipyretic percentage (%) ([2]; 4 h after administration): −1.70 ± 1.23 %; Lung index (parainfluenza virus): 1.335 ± 0.062; Lung index inhibition rate (parainfluenza virus): 16.10; antiviral effective rate (ER %) (influenza virus; influenza virus 100TCID50, Vero, 72 h, drug g/L (Table 1-2): phillyrin 0.01, Phillygeninin 0.02, compositions A, B 0.01, Ribavirin 0.70, oseltamivir phosphate 0.30): 75.38** %; antiviral effective rate (ER %) [3]: 80.40** %; antiviral effective rate (ER %) [4]: 75.08** %
